{"source": "paper PMC9263924", "about": "“Mycobacterium tuberculosis Methyltransferase Rv1515c Can Suppress Host Defense Mechanisms by Modulating Immune Functions Utilizing a Multipronged Mechanism” (Frontiers in Molecular Biosciences, 2022)", "target": "Rv1515c (Mycobacterium tuberculosis, UniProt P71794)", "sequence (P71794 entry or part of it)": "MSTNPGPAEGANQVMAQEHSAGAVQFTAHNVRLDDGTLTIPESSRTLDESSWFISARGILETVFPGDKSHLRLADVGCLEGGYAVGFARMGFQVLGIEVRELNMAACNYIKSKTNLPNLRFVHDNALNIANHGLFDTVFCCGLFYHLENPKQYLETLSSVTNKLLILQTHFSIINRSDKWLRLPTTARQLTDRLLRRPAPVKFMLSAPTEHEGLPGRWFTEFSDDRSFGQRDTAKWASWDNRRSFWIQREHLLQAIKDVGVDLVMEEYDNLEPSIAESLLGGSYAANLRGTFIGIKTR", "data": [{"smiles": "C[S+](CC[C@H](N)C(=O)O)C[C@H]1O[C@@H](n2cnc3c(N)ncnc32)[C@H](O)[C@@H]1O", "note": "(stereo partly shown) [S-adenosylmethionine]", "values": [{"measurement": "EpiQuik DNA MTase kit, 5-methylcytosine antibody detection, absorbance 450 nm", "result": "ability of the Rv1515c to transfer a methyl group from Adomet to cytosine"}]}]}
